Laboratory results as given in patent US20230147312A1, “TREATMENT OF ACUTE RESPIRATORY DISTRESS SYNDROME AND RELATED CONDITIONS WITH ANTAGONISTS OF E-SELECTIN” (GLYCOMIMETICS, INC., priority 2020, published 2023).
“Also recorded” adds a separate entry of the source. Read-outs that look alike come from different tables or passages of the source.

How the values were obtained:
[1] = system: Human lung microvascular endothelial cells (HMVEC-L); conditions: HMVEC-L treated with 10 μM; cited from earlier work
[2] = system: COVID-19 patients; conditions: of six COVID-19 patients in the ICU; cited from earlier work
[3] = system: animals; conditions: in vivo
[4] = system: humans; conditions: human, in vivo
[5] = target: T1, E-selectin (Homo sapiens, UniProt P16581); assay: binding and inhibiting E-selectin
T1 sequence (P16581 22-610): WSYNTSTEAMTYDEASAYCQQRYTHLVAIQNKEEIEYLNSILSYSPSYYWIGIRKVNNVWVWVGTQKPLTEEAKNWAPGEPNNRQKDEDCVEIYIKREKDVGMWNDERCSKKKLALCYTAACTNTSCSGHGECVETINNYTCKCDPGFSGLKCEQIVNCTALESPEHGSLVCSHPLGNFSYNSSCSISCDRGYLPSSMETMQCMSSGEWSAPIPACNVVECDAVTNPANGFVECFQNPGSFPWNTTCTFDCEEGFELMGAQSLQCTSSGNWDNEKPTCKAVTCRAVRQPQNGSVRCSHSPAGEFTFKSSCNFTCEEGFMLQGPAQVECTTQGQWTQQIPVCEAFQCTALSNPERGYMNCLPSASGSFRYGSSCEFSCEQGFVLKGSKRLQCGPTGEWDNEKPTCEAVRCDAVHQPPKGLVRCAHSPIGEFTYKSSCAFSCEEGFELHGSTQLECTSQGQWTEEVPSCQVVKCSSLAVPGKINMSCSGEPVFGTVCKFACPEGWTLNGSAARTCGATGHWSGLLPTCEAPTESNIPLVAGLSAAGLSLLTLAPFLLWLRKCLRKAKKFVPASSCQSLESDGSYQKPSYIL

[6] = system: sE-selectin; conditions: cited from earlier work
[7] = system: humans; assay: toxicity in Phase 1 clinical trials / humans
[8] = system: animals; assay: toxicity in animals
[9] = system: human dermal microvascular endothelial cells (HDMEC); conditions: cytokine treatment over 4 hours, vs Medium control; cited from earlier work
[10] = system: human umbilical vein endothelial cells (HUVEC); conditions: cytokine treatment over 4 hours, vs Medium control; cited from earlier work

CCCCCCCCCCCCCCC(Cl)C(=O)O (stereo not shown) [Compound 2-CIPA, 2-chloropalmitic acid]
adherence of human neutrophils [1]: promoted neutrophil adhesion; also recorded: increases adhesion of neutrophils

tocilizimab: antibody directed against the cytokine, IL-6, approved as an anti-inflammatory drug
patients who died [2]: one | patients who showed improvement [2]: three | patients who stabilized [2]: two

CC[C@H]1C[C@@H](C(=O)NCCNC(=O)CCOCCOCCOCCOCCOCCOCCOCCOCCOCCOCCOCCOC)C[C@@H](O[C@@H]2O[C@H](CO)[C@H](O)[C@H](O[C@@H](CC3CCCCC3)C(=O)[O-])[C@H]2NC(C)=O)[C@@H]1O[C@@H]1O[C@@H](C)[C@@H](O)[C@@H](O)[C@@H]1O.[Na+] [GMI-1271]
toxicities [3]: no measurable toxicities | toxicity [3]: no toxicity | toxicities [4]: no measurable toxicities | toxicity [4]: no toxicity | antagonism of E-selectin [5]: potent antagonists of E-selectin | sE-selectin circulating (plasma) levels ([6]; AML patients, after treatment, all dose groups): significantly (P<0.0001) reduced; also recorded: decreased over the treatment period in all dose groups | decrease of plasma soluble E-selectin from baseline to Day 8 ([6]; end of 6 days of dosing concurrently with MEC chemotherapy): highly significant (p<0.0001) with no dose response

C[C@@H]1O[C@@H](O[C@@H]2[C@@H](NC(=O)c3cc(=O)[nH]c(=O)[nH]3)C[C@@H](C(=O)NCCNC(=O)COCCOCC(=O)Nc3cc(S(=O)(=O)O)cc4cc(S(=O)(=O)O)cc(S(=O)(=O)O)c34)C[C@H]2O[C@@H]2O[C@H](CO)[C@H](O)[C@H](O[C@@H](CC3CCCCC3)C(=O)O)[C@H]2OC(=O)c2ccccc2)[C@@H](O)[C@H](O)[C@@H]1O [GMI-1070]
toxicities ([7]; Phase 1 clinical trials): no measurable toxicities | toxicity ([7]; humans, relatively high concentrations): no toxicity | toxicities [8]: no measurable toxicities | toxicity ([8]; relatively high concentrations): no toxicity

IL-1β: cytokine used to treat endothelial cells
expression of E-selectin [9]: stimulate expression of E-selectin | expression of E-selectin [10]: stimulate expression of E-selectin

CCCCCCCCCCCCCCCC(=O)O [PA, palmitic acid]
adherence of human neutrophils [1]: did not

TNFα
expression of E-selectin [9]: stimulate expression of E-selectin | expression of E-selectin [10]: stimulate expression of E-selectin

B1: IL-10: cytokine used to treat endothelial cells (protein, UniProt P22301 19-178, looked up)
Interleukin-10: SPGQGTQSENSCTHFPGNLPNMLRDLRDAFSRVKTFFQMKDQLDNLLLKESLLEDFKGYLGCQALSEMIQFYLEEVMPQAENQDPDIKAHVNSLGENLKTLRLRLRRCHRFLPCENKSKAVEQVKNAFNKLQEKGIYKAMSEFDIFINYIEAYMTMKIRN
expression of E-selectin [9]: stimulate expression of E-selectin | expression of E-selectin [10]: stimulate expression of E-selectin
